Experimental data as given in US20110195041A1, “ANTIMICROBIAL COMPOSITIONS” (NDSU RESEARCH FOUNDATION, priority 2008, published 2011).
≈ marks a conversion by molar mass, not a printed value.

Key:
[1] = tested on: S. epidermidis; assay: Minimum inhibitory concentration (MIC) of triclosan; format: cell-based; conditions: Staphylococcus epidermidis; tryptic soy broth; range 0.2 to 25 μg/mL; complete growth inhibition
Protocol: (§1) The antimicrobial activity of triclosan toward the microorganisms of interest was determined by measuring the minimum inhibitor concentration (MIC). The protocol for determining the minimum inhibitory concentration (MIC) of antimicrobial agents in solution has been reported previously (described in Stafslien, S., et al., Biofouling, 2007. 23(1/2): 37-44.). Triclosan was serially diluted (2-fold) in marine broth, tryptic soy broth, and Guillard's F/2 medium for the MIC evaluation of C. lytica, S. epidermidis or E. coli, and N. incerta, respectively. The triclosan concentration range evaluated was from 0.2 μg/mL to 25 μg/mL.

[2] = tested on: C. lytica; assay: as above; format: cell-based; conditions: Cellulophaga lytica; marine broth; range 0.2 to 25 μg/mL; complete growth inhibition
Protocol: as §1

SMILES: Oc1cc(Cl)ccc1Oc1ccc(Cl)cc1Cl [Triclosan, 5-chloro-2-(2,4-dichlorophenoxy)phenol]
- MIC [1]: ≤ 0.2 µg/mL
- MIC [2]: 12.5 µg/mL (≈ 43.2 µM)
